{"source": "patent US7517891B2", "about": "“Camptothecin derivatives and improved synthetic methods” (Glyconix Corporation, priority 2005, dated 2009)", "data": [{"smiles": "CC[C@@]1(OC(=O)CCCBr)C(=O)OCc2c1cc1n(c2=O)Cc2c-1nc1ccccc1c2CO", "values": [{"measurement": "melting point", "result": "172 to 176 °C (dec.)"}]}]}
